Assay [1] concerns the target EGFRL858R + T790M (Homo sapiens, UniProt P00533, L858R/T790M). The experiment in a line: In vitro enzymatic activity assay (Z'-LYTE), EGFR L858R + T790M. The conditions noted are these: Z'-LYTE FRET peptide assay; read-out: EGFRL858R + T790M kinase activity (IC50). Format: biochemical. The text has this: (§1) In vitro enzymatic activity assay: using Z′-LYTE™ technology (detect fluorescence, coupled-enzyme format, based on the differential sensitivity of phosphorylated and non-phosphorylated peptides to proteolytic cleavage), based on FRET, using Z′ LYTE™ FRET peptide substrate, detect the activity of compounds against enzymatic. […] After one hour, site specific protease which can recognize and cleaves non-phosphorylated FRET-peptide. After another hour, using an excitation wavelength of 400 nm excites, then detect the […] at 445 nm and 520 nm.

For assay [2], the system named is HCC827 (lung cancer cells, EGFR E746-A750 deletion). The experiment in a line: Cell proliferation by MTT, HCC827. Format: cell-based. The conditions noted are these: Homo sapiens, HCC827, read-out: HCC827 50% inhibitory concentration (IC50), 72 h.
Assay [3] deals with EGFRL861Q (Homo sapiens, UniProt P00533, L861Q). Kind of assay: In vitro enzymatic activity assay (Z'-LYTE), EGFR L861Q. It is filed as biochemical. The settings on record: Z'-LYTE FRET peptide assay; read-out: EGFRL861Q kinase activity (IC50).
Excerpt: as §1

Assay [4] relates to NCI-H820 (lung cancer cells). Kind of assay: Cell proliferation by MTT, NCI-H820. Format: cell-based. The conditions noted are these: NCI-H820, read-out: NCI-H820 50% inhibitory concentration (IC50), 72 h.
Assay [5] concerns A431 (Human epidermal carcinoma, EGFR high expression). Kind of assay: Cell proliferation by MTT, A431. It is filed as cell-based. The settings on record: A-431, read-out: A431 50% inhibitory concentration (IC50), 72 h.
In assay [6] the target is EGFRWT (Homo sapiens, UniProt P00533). Kind of assay: In vitro enzymatic activity assay (Z'-LYTE), wild type EGFR. Format: biochemical. The settings on record: Z'-LYTE FRET peptide assay; read-out: EGFRWT kinase activity (IC50).
Excerpt: as §1

The target in assay [7] is EGFRL858R (Homo sapiens, UniProt P00533, L858R). Kind of assay: In vitro enzymatic activity assay (Z'-LYTE), EGFR L858R. It is filed as biochemical. The settings on record: Z'-LYTE FRET peptide assay; read-out: EGFRL858R kinase activity (IC50).
Excerpt: as §1

In assay [8] the target is T1, EGFR T790M kinase (Homo sapiens, UniProt P00533, T790M).
T1 construct: purchased invitrogen PV4803
Kind of assay: In vitro enzymatic activity assay (Z'-LYTE), EGFR T790M. Format: biochemical. The conditions noted are these: Z'-LYTE FRET peptide assay; read-out: EGFRT790M kinase activity (IC50).
Excerpt: as §1

Assay [9] relates to H1975 (lung cancer cells, EGFR L858R&T790M). The experiment in a line: Cell proliferation by MTT, H1975. Format: cell-based. The settings on record: Homo sapiens, NCI-H1975, read-out: H1975 50% inhibitory concentration (IC50), 72 h.

Bounds are passed on as bounds.

T1 sequence (P00533 25-1210 T790M): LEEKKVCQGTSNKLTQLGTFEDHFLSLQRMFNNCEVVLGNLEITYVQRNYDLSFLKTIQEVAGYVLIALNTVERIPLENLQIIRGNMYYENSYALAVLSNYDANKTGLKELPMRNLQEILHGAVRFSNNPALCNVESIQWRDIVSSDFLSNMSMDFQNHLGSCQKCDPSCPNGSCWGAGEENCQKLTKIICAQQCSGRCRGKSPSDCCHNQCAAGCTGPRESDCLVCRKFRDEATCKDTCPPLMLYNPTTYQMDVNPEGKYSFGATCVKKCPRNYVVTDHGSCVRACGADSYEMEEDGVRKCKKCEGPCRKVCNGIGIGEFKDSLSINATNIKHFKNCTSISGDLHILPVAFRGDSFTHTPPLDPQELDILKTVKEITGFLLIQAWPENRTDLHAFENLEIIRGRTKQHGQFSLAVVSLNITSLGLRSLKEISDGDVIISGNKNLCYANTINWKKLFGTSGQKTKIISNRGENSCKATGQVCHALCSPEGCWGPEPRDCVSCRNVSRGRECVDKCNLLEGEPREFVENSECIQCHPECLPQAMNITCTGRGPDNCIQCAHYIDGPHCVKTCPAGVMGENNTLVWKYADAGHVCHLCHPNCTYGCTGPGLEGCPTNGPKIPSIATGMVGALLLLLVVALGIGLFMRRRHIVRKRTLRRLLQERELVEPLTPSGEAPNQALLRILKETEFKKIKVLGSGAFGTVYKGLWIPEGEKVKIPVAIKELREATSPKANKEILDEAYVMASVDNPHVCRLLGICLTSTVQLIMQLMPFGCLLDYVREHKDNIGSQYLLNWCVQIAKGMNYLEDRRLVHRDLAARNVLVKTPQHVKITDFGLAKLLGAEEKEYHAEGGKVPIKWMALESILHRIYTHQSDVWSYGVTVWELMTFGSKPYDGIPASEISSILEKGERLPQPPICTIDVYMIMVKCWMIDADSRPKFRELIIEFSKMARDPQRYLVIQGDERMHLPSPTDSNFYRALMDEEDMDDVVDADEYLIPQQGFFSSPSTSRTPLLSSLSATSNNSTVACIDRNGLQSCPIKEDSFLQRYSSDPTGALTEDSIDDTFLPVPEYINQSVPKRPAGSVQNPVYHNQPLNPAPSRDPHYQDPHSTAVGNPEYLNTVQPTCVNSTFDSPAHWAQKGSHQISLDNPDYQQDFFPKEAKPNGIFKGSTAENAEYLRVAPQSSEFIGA
Sequence of EGFRL861Q (P00533 25-1210 L861Q): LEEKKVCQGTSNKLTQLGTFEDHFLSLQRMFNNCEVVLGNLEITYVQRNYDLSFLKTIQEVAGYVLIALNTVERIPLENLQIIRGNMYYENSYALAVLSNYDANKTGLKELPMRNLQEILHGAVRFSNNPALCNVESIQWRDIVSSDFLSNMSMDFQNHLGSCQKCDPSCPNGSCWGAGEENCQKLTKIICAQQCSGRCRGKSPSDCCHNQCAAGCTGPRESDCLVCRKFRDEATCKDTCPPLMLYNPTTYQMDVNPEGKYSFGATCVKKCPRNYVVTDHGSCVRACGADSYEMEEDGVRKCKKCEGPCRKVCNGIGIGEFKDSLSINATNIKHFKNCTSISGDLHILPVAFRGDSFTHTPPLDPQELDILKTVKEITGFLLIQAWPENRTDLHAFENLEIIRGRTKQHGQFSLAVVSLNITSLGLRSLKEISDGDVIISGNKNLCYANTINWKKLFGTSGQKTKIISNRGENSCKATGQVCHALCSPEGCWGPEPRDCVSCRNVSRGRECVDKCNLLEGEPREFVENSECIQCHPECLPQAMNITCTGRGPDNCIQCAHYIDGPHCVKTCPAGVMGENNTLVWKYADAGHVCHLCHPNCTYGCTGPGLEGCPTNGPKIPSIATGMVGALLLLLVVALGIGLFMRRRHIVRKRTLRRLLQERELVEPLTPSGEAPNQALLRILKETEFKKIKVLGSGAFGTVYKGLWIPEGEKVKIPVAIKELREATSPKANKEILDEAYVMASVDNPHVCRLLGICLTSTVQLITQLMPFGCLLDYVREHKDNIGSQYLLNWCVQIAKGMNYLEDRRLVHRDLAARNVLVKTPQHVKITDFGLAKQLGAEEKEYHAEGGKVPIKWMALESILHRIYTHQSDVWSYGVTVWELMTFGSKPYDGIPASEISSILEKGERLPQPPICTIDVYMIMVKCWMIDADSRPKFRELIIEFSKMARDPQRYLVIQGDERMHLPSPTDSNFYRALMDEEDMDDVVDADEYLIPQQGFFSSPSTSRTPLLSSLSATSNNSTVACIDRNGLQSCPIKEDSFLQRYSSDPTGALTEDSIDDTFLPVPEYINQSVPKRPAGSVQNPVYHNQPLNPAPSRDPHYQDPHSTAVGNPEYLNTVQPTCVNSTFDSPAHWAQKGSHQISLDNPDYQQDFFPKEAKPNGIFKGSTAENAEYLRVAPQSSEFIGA
Sequence of EGFRL858R + T790M (P00533 25-1210 T790M/L858R): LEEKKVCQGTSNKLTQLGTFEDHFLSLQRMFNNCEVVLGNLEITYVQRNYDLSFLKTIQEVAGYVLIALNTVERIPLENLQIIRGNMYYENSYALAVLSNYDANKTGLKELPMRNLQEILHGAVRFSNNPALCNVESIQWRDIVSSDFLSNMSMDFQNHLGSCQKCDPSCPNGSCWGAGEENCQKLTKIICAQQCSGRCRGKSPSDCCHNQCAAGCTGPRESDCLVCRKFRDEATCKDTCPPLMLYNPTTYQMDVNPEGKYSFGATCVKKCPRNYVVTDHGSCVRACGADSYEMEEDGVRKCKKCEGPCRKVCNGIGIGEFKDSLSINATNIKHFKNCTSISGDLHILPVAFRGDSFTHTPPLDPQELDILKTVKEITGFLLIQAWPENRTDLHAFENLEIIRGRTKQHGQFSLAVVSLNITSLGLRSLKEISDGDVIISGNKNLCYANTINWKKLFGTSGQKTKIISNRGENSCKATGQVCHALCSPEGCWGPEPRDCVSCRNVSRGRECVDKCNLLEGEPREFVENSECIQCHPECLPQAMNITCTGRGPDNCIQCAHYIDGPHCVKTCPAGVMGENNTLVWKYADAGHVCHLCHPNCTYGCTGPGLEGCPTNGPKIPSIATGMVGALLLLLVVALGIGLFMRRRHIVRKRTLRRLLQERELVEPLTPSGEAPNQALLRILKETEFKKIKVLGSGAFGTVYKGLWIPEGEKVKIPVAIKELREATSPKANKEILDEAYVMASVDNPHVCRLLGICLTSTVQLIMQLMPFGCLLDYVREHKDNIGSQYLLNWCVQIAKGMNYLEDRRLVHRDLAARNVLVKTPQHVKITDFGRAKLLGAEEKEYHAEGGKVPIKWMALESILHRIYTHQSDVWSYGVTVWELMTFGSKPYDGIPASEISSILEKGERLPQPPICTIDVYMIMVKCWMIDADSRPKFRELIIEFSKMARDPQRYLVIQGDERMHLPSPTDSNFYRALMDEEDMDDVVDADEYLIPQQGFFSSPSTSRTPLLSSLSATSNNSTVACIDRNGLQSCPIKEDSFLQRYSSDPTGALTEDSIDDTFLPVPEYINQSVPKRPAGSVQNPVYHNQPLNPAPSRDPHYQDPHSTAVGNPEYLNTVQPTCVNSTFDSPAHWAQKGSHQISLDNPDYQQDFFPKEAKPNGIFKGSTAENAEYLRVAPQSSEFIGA
Sequence of EGFRWT (P00533 25-1210): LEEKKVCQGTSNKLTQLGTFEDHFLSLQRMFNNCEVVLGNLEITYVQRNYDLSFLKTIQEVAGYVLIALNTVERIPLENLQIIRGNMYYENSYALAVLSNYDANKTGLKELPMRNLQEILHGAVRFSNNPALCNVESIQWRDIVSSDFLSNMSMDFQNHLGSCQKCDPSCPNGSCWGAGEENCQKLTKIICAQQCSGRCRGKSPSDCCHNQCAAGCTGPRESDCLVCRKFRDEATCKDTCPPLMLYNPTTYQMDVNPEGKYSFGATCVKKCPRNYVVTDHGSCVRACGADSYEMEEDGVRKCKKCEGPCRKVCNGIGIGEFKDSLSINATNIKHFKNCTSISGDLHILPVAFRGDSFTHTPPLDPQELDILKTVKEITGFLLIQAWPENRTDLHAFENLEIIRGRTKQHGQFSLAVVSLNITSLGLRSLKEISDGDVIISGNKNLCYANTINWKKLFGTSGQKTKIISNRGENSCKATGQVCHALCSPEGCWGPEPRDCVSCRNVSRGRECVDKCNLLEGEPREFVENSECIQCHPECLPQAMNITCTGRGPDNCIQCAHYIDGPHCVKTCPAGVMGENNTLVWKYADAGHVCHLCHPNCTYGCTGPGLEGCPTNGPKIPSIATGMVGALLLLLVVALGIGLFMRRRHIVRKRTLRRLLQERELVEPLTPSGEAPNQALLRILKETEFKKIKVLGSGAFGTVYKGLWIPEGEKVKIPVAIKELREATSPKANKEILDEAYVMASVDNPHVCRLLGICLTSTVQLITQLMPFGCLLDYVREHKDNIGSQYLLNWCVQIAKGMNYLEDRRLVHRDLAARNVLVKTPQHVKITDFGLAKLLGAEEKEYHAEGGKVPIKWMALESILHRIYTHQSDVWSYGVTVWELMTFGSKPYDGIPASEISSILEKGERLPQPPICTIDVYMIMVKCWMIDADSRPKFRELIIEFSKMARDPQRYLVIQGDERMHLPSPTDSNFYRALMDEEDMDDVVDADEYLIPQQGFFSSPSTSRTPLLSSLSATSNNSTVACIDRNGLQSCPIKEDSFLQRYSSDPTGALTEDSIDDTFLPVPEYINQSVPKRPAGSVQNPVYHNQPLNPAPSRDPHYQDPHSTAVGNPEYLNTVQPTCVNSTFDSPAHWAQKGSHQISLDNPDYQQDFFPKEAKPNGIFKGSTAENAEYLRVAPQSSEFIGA

As to `C=CC(=O)Nc1cccc(N2C(=O)N(C)Cc3cnc(Nc4ccc(N5CCOCC5)cc4OC)nc32)c1` [C-EGF08, N-(3-(7-(2-methoxy-4-morpholinophenylamino)-3-methyl-2-oxo-3,4-dihydropyrimido[4,5-d]pyrimidin-1(2H)-yl)phenyl)acrylamide], the IC50 was 10 to 100 nM in assay [1]; 159 nM in assay [2]; 10 to 100 nM in assay [3]; > 100 µM in [4]; 21.2 µM in assay [5]; 10 to 100 nM in assay [6]. For the same compound, the values for the IC50 in assay [7], in [8] and in assay [9] were 10 to 100 nM, 10 to 100 nM and 159 nM, respectively.
Consider `C=CC(=O)Nc1cccc(N2C(=O)N(C)Cc3cnc(Nc4ccc(N5CCSCC5)cc4OC)nc32)c1` [C-EGF09, N-(3-(7-(2-methoxy-4-thiomorpholinophenylamino)-3-methyl-2-oxo-3,4-dihydropyrimido[4,5-d]pyrimidin-1(2H)-yl)phenyl)acrylamide], for which the IC50 in assay [1] is 10 to 100 nM; in assay [2], 212 nM; in assay [3], ≤ 10 nM; in assay [4], > 100 µM; in assay [5] it was 10.7 µM; in assay [6] it was 10 to 100 nM. In addition, the IC50 in assay [7] is 10 to 100 nM; in assay [8], 10 to 100 nM; in assay [9], 379 nM.
On to `C=CC(=O)Nc1cccc(N2C(=O)N(C)Cc3cnc(Nc4ccccc4)nc32)c1` [C-EGF10, N-(3-(3-methyl-2-oxo-7-(phenylamino)-3,4-dihydropyrimido[4,5-d]pyrimidin-1(2H)-yl)phenyl)acrylamide], for which the IC50 was 10 to 100 nM in assay [1]; 28 nM in assay [2]; 10 to 100 nM in assay [3]; > 100 µM in assay [4]; 1.58 µM in assay [5]; ≤ 10 nM in assay [6]. Also, the IC50 in assay [7] was 10 to 100 nM; in [8] it was ≤ 10 nM; in [9] it was 213 nM.
Regarding `C=CC(=O)Nc1cccc(N2C(=O)N(C)Cc3cnc(Nc4ccc(N5CCCCC5)cc4OC)nc32)c1` [C-EGF11, N-(3-(7-(2-methoxy-4-(piperidin-1-yl)phenylamino)-3-methyl-2-oxo-3,4-dihydropyrimido[4,5-d]pyrimidin-1(2H)-yl)phenyl)acrylamide], the IC50 was 10 to 100 nM in assay [1]; 310 nM in assay [2]; ≤ 10 nM in [3]; > 100 µM in assay [4]; 17.7 µM in [5]; 10 to 100 nM in [6]. Besides, the IC50 in [7] is 10 to 100 nM; in [8], 100 to 1000 nM; in [9] it was 2560 nM.
In the case of `C=CC(=O)Nc1cccc(N2C(=O)N(C)Cc3cnc(Nc4ccc(N5CCCC5)cc4OC)nc32)c1` [C-EGF12, N-(3-(7-(2-methoxy-4-(pyrrolidin-1-yl)phenylamino)-3-methyl-2-oxo-3,4-dihydropyrimido[4,5-d]pyrimidin-1(2H)-yl)phenyl)acrylamide], the IC50 is 10 to 100 nM in [1]; 409 nM in [2]; ≤ 10 nM in [3]; 35.6 µM in assay [4]; 8.16 µM in assay [5]; 10 to 100 nM in assay [6]. Moreover, the IC50 in [7] was 10 to 100 nM; in [8] it was 100 to 1000 nM; in assay [9], 1530 nM.
Regarding `C=CC(=O)Nc1cccc(N2C(=O)N(C)Cc3cnc(Nc4ccc(N5CCC(N(C)C)CC5)cc4OC)nc32)c1` [C-EGF13, N-(3-(7-(4-(4-(dimethylamino)piperidin-1-yl)-2-methoxyphenylamino)-3-methyl-2-oxo-3,4-dihydropyrimido[4,5-d]pyrimidin-1(2H)-yl)phenyl)acrylamide], the IC50 was ≤ 10 nM in [1]; 198 nM in assay [2]; ≤ 10 nM in assay [3]; > 100 µM in assay [4]; > 100 µM in [5]; ≤ 10 nM in [6]. Moreover, the results for the IC50 in assay [7], in assay [8] and in [9] were ≤ 10 nM, ≤ 10 nM and 568 nM, respectively.
On to `C=CC(=O)Nc1cccc(N2C(=O)N(C)Cc3cnc(Nc4ccc(N5CCC(N6CCN(C)CC6)CC5)cc4OC)nc32)c1` [C-EGF14, N-(3-(7-(2-methoxy-4-(4-(4-methylpiperazin-1-yl)piperidin-1-yl)phenylamino)-3-methyl-2-oxo-3,4-dihydropyrimido[4,5-d]pyrimidin-1(2H)-yl)phenyl)acrylamide], for which the IC50 is 10 to 100 nM in assay [1]; 188 nM in [2]; ≤ 10 nM in assay [3]; > 100 µM in assay [4]; > 100 µM in assay [5]; ≤ 10 nM in [6]. For the same compound, the IC50 in assay [7] is ≤ 10 nM; in assay [8], 10 to 100 nM; in [9], 1220 nM.
For the compound `C=CC(=O)Nc1cccc(N2C(=O)N(C)Cc3cnc(Nc4ccc(N5CCCN(C)CC5)cc4OC)nc32)c1` [C-EGF17, N-(3-(7-(2-methoxy-4-(4-methyl-1,4-diazepan-1-yl)phenylamino)-3-methyl-2-oxo-3,4-dihydropyrimido[4,5-d]pyrimidin-1(2H)-yl)phenyl)acrylamide], the IC50 in [1] was ≤ 10 nM; in [2], 62 nM; in [3] it was ≤ 10 nM; in assay [4] it was > 100 µM; in assay [5], 11.1 µM; in [6] it was ≤ 10 nM. Further, the IC50 is ≤ 10 nM in assay [7], ≤ 10 nM in assay [8] and 710 nM in [9].
For `C=CC(=O)Nc1cccc(N2C(=O)N(C)Cc3cnc(Nc4ccc(N5CCN(C)CC5)cc4F)nc32)c1` [C-EGF18, N-(3-(7-(2-fluoro-4-(4-methylpiperazin-1-yl)phenylamino)-3-methyl-2-oxo-3,4-dihydropyrimido[4,5-d]pyrimidin-1(2H)-yl)phenyl)acrylamide], the IC50 in assay [1] was 1000 to 10000 nM; in assay [2], > 100000 nM; in assay [3], ≥ 1000 nM; in assay [4], 4.85 µM; in assay [5], > 100 µM; in assay [6], 1000 to 10000 nM. Besides, the IC50 in assay [7] was ≥ 10000 nM; in assay [8], ≥ 10000 nM; in [9] it was > 100000 nM.
Turning to `C=CC(=O)Nc1cccc(N2C(=O)N(c3cccc4ccccc34)Cc3cnc(Nc4ccc(N5CCN(C)CC5)cc4OC)nc32)c1` [C-EGF28, N-(3-(7-(2-methoxy-4-(4-methylpiperazin-1-yl)phenylamino)-3-(naphthalen-1-yl)-2-oxo-3,4-dihydropyrimido[4,5-d]pyrimidin-1(2H)-yl)phenyl)acrylamide], the IC50 in [1] is ≤ 10 nM; in assay [2], 6 nM; in assay [3], ≤ 10 nM; in [6], ≤ 10 nM; in [7] it was ≤ 10 nM; in [8], ≤ 10 nM. In assay [9], the IC50 is 30 nM.
On to `CCC(=O)Nc1cccc(N2C(=O)N(C)Cc3cnc(Nc4ccc(N5CCN(C)CC5)cc4OC)nc32)c1` [C-EGF34, N-(3-(7-(2-methoxy-4-(4-methylpiperazin-1-yl)phenylamino)-3-methyl-2-oxo-3,4-dihydropyrimido[4,5-d]pyrimidin-1(2H)-yl)phenyl)propionamide], for which the IC50 is 1000 to 10000 nM in [1]; 1000 to 10000 nM in assay [3]; > 30 µM in [5]; 1000 to 10000 nM in assay [6]; 1000 to 10000 nM in assay [7]; 1000 to 10000 nM in [8]. Further, the IC50 in [9] was > 20000 nM.

Values taken from patent US20140296216A1, “PYRIMIDO[4,5-D]PYRIMIDINYL COMPOUNDS, PHARMACEUTICAL COMPOSITIONS AND USES THEREOF” (GUANGZHOU INSTITUTE OF BIOMEDICINE AND HEALTH, CHINESE …, priority 2011, published 2014).
